Assays:
[1] = test system: SV40-Luc; assay: SV40-Luc control luciferase reporter assay, SV 5A8 cell line (SV40-Luc and SV40-R-Luc), control for non-specific inhibitors; format: cell-based, human; conditions: SV 5A8 cells derived from SW480, 24 hours of incubation with compound, ratio Firefly/Renilla luciferase
Method in brief: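 Stable SW480 reporter clones are exposed to compound dilutions for 24 h at 0.316% DMSO. Firefly signal, Tcf-4- or SV40-driven, is divided by SV40-Renilla signal, and IC50 is derived from this ratio relative to control.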

[2] = test system: β-catenin/Tcf-4; assay: cells; format: cell-based; conditions: 24 hours of incubation with compound, ratio Firefly/Renilla luciferase
Method in brief: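 SW480-derived lines with integrated reporters (Tcf-4-driven firefly luciferase; SV40 firefly as specificity control; SV40 Renilla for cell number/toxicity), treated 24 hours with titrated compounds, final 0.316% DMSO. Dual-luciferase read-out; firefly/Renilla ratio as % of control, duplicate plates, IC50 (nM) from curve fit.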

[3] = Homo sapiens, SW480, 24 h, Tcf 33.13 cells derived from SW480
[4] = Homo sapiens, Tcf22C11, 24 h, Tcf 22C11 cells derived from SW480

Compound | IC50 ([1]; Homo sapiens, SV5A8, 24 h) [nM] | IC50 [2, 3] [nM] | IC50 [2, 4] [nM] | IC50 [1] [nM] | IC50 ([2]; Tcf 22C11 cells derived from SW480) [nM] | IC50 ([2]; Tcf 33.13 cells derived from SW480) [nM]
O=C(Nc1ccc(CNc2nc(N3CCN(c4ncccn4)CC3)nc3ccc(C(F)(F)F)cc23)cc1)C1CCN(Cc2ccc(F)cc2)CC1 [Example 157, 1-(4-fluorobenzyl)-N-[4-({[2-(4-pyrimidin-2-ylpiperazin-1-yl)-6-(trifluoromethyl)quinazolin-4-yl]amino}methyl)phenyl]piperidine-4-carboxamide] | > 7140 | > 3570 | > 7140 | – | – | –
CNc1nc(NCc2ccc(NC(=O)c3ccc(Cl)cc3)cc2)c2cc(C(F)(F)F)ccc2n1 [Example 167, 4-chloro-N-[4-({[2-(methylamino)-6-(trifluoromethyl)quinazolin-4-yl]amino}methyl)phenyl]benzamide] | > 5140 | 751 | 919 | – | – | –
Cc1ccc2c(NCc3ccc(NC(=O)C4CCN(Cc5ccc(Cl)c(F)c5)CC4)cc3)nc(N(C)C)nc2c1 [Example 263, 1-(4-chloro-3-fluorobenzyl)-N-[4-({[2-(dimethylamino)-7-methylquinazolin-4-yl]amino}methyl)phenyl]piperidine-4-carboxamide] | > 1970 | 410 | 422 | – | – | –
CN(C)c1nc(NCc2ccc(NC(=O)c3ccc(F)cc3)cc2)c2cc(CO)ccc2n1 [Example 71, N-[4-({[2-(dimethylamino)-6-(hydroxymethyl)quinazolin-4-yl]amino}methyl)phenyl]-4-fluorobenzamide] | > 11200 | 2340 | 2990 | – | – | –
CNc1nc(NCc2ccc(NC(=O)c3ccc(Cl)cc3)cc2)c2cc(C)cc(C)c2n1 [Example 29, 4-chloro-N-[4-({[6,8-dimethyl-2-(methylamino)quinazolin-4-yl]amino}methyl)phenyl]benzamide] | > 2800 | 756 | 988 | – | – | –
O=C(Nc1ccc(CNc2nc(N3CCC3)nc3ccc(C(F)(F)F)cc23)cc1)C1CCN(Cc2ccc(F)cc2)CC1 [Example 155, N-[4-({[2-azetidin-1-yl-6-(trifluoromethyl)quinazolin-4-yl]amino}methyl)phenyl]-1-(4-fluorobenzyl)piperidine-4-carboxamide] | > 8440 | 3490 | > 2110 | – | – | –
COc1ccc(CN2CCC(C(=O)Nc3ccc(CNc4nc(N(C)C)nc5cc(C)ccc45)cc3)CC2)cc1 [Example 250, N-[4-({[2-(dimethylamino)-7-methylquinazolin-4-yl]amino}methyl)phenyl]-1-(4-methoxybenzyl)piperidine-4-carboxamide] | > 9280 | 213 | 373 | – | – | –
CN(C)c1nc(NCc2ccc(NC(=O)C3CCN(Cc4ccc(F)cc4)CC3)cc2)c2cc(C(F)(F)F)ccc2n1 [Example 154, N-[4-({[2-(dimethylamino)-6-(trifluoromethyl)quinazolin-4-yl]amino}methyl)phenyl]-1-(4-fluorobenzyl)piperidine-4-carboxamide] | > 8610 | 4190 | 3590 | – | – | –
Cc1ccc2c(N[C@H](C)c3ccc(NC(=O)c4ccc(F)cc4)cc3)nc(N(C)C)nc2c1 [Example 272, (R)—N-(4-(1-(2-(dimethylamino)-7-methylquinazolin-4-ylamino)ethyl)phenyl)-4-fluorobenzamide] | > 5420 | 986 | 894 | – | – | –
CC(C)c1ccc2c(NCc3ccc(NC(=O)C4CCN(Cc5ccccc5)CC4)cc3)nc(N(C)C)nc2c1 [Example 63, 1-benzyl-N-[4-({[2-(dimethylamino)-7-isopropylquinazolin-4-yl]amino}methyl)phenyl]piperidine-4-carboxamide] | > 8720 | 1190 | 2150 | – | – | –
Cc1ccc2c(NCc3ccc(NC(=O)C4CCN(Cc5ccccc5)CC4)cc3)nc(N(C)CCO)nc2c1 [Example 139, 1-benzyl-N-{4-[({2-[(2-hydroxyethyl)(methyl)amino]-7-methylquinazolin-4-yl}amino)methyl]phenyl}piperidine-4-carboxamide] | > 18600 | 1420 | 1460 | – | – | –
CNc1nc(NCc2ccc(NC(=O)c3ccc(Cl)cc3)cc2)c2cc(OC)ccc2n1 [Example 33, 4-chloro-N-[4-({[6-methoxy-2-(methylamino)quinazolin-4-yl]amino}methyl)phenyl]benzamide] | > 2790 | 1720 | 1280 | – | – | –
Cc1cc(C)c2nc(N3CCN(C)CC3)nc(NCc3ccc(NC(=O)c4ccc(F)cc4)cc3)c2c1 [Example 49, N-[4-({[6,8-dimethyl-2-(4-methylpiperazin-1-yl)quinazolin-4-yl]amino}methyl)phenyl]-4-fluorobenzamide] | > 10000 | > 2510 | > 2510 | – | – | –
Cc1ccc2c(NCc3ccc(NC(=O)C4CCN(Cc5ccncc5)CC4)cc3)nc(N(C)C)nc2c1 [Example 257, N-[4-({[2-(dimethylamino)-7-methylquinazolin-4-yl]amino}methyl)phenyl]-1-(pyridin-4-ylmethyl)piperidine-4-carboxamide] | > 8080 | 906 | 1190 | – | – | –
Cc1ccc2nc(N(C)Cc3ccccn3)nc(NCc3ccc(NC(=O)c4ccc(F)cc4)cc3)c2c1 [Example 58, 4-fluoro-N-{4-[({6-methyl-2-[methyl(pyridin-2-ylmethyl)amino]quinazolin-4-yl}amino)methyl]phenyl}benzamide] | 4190 | 2080 | 2500 | – | – | –
Cc1ccc2nc(N(C)C)nc(NCc3ccc(NC(=O)Nc4ccc(F)cc4)cc3)c2c1 [Example 181, N-[4-({[2-(dimethylamino)-6-methylquinazolin-4-yl]amino}methyl)phenyl]-N′-(4-fluorophenyl)urea] | > 2810 | 549 | 719 | – | – | –
CNc1nc(NCc2ccc(NC(=O)c3ccc(Cl)c(Cl)c3)cc2)c2cc(C)ccc2n1 [Example 37, 3,4-dichloro-N-[4-({[6-methyl-2-(methylamino)quinazolin-4-yl]amino}methyl)phenyl]benzamide] | > 21400 | 5280 | > 10700 | – | – | –
Cc1ccc2c(NCc3ccc(NC(=O)c4ccc(F)cc4)cc3)nc(N3CCN(c4ccccn4)CC3)nc2c1 [Example 200, 4-fluoro-N-[4-({[7-methyl-2-(4-pyridin-2-ylpiperazin-1-yl)quinazolin-4-yl]amino}methyl)phenyl]benzamide] | > 4560 | 491 | 804 | – | – | –
Cc1ccc2c(N[C@H](C)c3ccc(NC(=O)c4ccc(Cl)nc4)cc3)nc(N(C)C)nc2c1 [Example 270, (R)-6-chloro-N-(4-(1-(2-(dimethylamino)-7-methylquinazolin-4-ylamino)ethyl)phenyl)nicotinamide] | > 10100 | 372 | 429 | – | – | –
Cc1ccc2nc(N3CCNCC3)nc(NCc3ccc(NC(=O)c4ccc(F)cc4)cc3)c2c1 [Example 45] | – | – | – | > 10600 | 1800 | 1480
CN(C)c1nc(NCc2ccc(NC(=O)C3CCN(Cc4ccccc4)CC3)cc2)c2ccccc2n1 [Example 146, 1-benzyl-N-[4-({[2-(dimethylamino)quinazolin-4-yl]amino}methyl)phenyl]piperidine-4-carboxamide] | > 10100 | 1770 | 2000 | – | – | –
Cc1ccc2c(NCc3ccc(NC(=O)Nc4ccc(Br)cc4)cc3)nc(N(C)C)nc2c1 [Example 179, N-(4-bromophenyl)-N′-[4-({[2-(dimethylamino)-7-methylquinazolin-4-yl]amino}methyl)phenyl]urea] | > 4950 | 924 | 538 | – | – | –
Cc1ccc(CN2CCC(C(=O)Nc3ccc(CNc4nc(N(C)C)nc5cc(C)ccc45)cc3)CC2)cc1 [Example 247, N-[4-({[2-(dimethylamino)-7-methylquinazolin-4-yl]amino}methyl)phenyl]-1-(4-methylbenzyl)piperidine-4-carboxamide] | > 4200 | 467 | 539 | – | – | –
Cc1ccc2c(NCc3ccc(NC(=O)C4CCN(Cc5ccccc5)CC4)cc3)nc(N(C)Cc3ccccc3)nc2c1 [Example 142, 1-benzyl-N-{4-[({2-[benzyl(methyl)amino]-7-methylquinazolin-4-yl}amino)methyl]phenyl}-piperidine-4-carboxamide] | > 4280 | 677 | 573 | – | – | –
O=C(Nc1ccc(CNc2nc(NC3CCC3)nc3ccccc23)cc1)c1ccc(F)cc1 [Example 115, N-[4-({[2-(cyclobutylamino)quinazolin-4-yl]amino}methyl)phenyl]-4-fluorobenzamide] | > 2830 | 991 | 1380 | – | – | –
C/C=C/c1ccc2c(N[C@@H](C)c3ccc(NC(=O)c4ccc(Cl)nc4)cc3)nc(N(C)C)nc2c1 [Example 107, 6-chloro-N-{4-[(1S)-1-({2-(dimethylamino)-7-[(1E)-prop-1-en-1-yl]quinazolin-4-yl}amino)ethyl]phenyl}nicotinamide] | > 4780 | 336 | 414 | – | – | –
COC(=O)c1ccc2nc(N(C)C)nc(NCc3ccc(NC(=O)c4ccc(F)cc4)cc3)c2c1 [Example 70, methyl 2-(dimethylamino)-4-({4-[(4-fluorobenzoyl)amino]benzyl}amino)quinazoline-6-carboxylate] | > 10600 | 1480 | 2140 | – | – | –

Reference: patent publication US20090004185A1, “AMINO-SUBSTITUTED QUINAZOLINE DERIVATIVES AS INHIBITORS OF BETA-CATENIN/TCF-4 PATHWAY AND CANCER TREATMENT AGENTS” (WYETH, priority 2007, published 2009)
